The target in one assay is T1, TDP-43 (Homo sapiens, UniProt Q13148).
T1 sequence (Q13148 whole entry): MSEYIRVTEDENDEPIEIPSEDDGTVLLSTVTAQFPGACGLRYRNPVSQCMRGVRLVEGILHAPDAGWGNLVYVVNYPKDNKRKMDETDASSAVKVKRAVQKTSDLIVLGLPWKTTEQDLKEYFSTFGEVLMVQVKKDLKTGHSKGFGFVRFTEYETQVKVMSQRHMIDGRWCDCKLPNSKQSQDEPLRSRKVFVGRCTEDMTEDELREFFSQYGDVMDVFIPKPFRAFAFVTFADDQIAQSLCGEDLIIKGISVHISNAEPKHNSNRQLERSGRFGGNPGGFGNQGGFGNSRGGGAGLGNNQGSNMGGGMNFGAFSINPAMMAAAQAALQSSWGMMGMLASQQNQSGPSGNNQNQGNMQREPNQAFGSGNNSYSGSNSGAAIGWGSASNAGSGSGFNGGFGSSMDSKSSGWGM
Experiment: not given
Conditions: using bt-(TG)6 and not bt-TAR32; Biochimie, 2012, 94, 1974-1981; cited from earlier work.
`COc1ccc(-c2cc(NCCCN(C)C)c3ccccc3n2)cc1` [Compound I]: the “activity in a TDP-43 alpha-screen” value is reported as “active”.

For a further assay, the target named is T1, TDP-43.
Experiment: not given
Conditions: cited from earlier work.
For the compound `COc1ccc(-c2cc(NCCCN(C)C)c3ccccc3n2)cc1` [Compound I], the “caspase-7 cleavage of TDP-43” value is on record as “promoted”.

The target of a further assay is TDP-43 1-260 (Homo sapiens, UniProt Q13148). Briefly: TDP-43 alpha-screen assay with bt-TAR32. It counts as binding. To be noted: bt-TAR32 0.125 nM; 3 h at room temperature; read-out: Activity (μM) in the TDP-43-DNA alpha-screen assay.
TDP-43 1-260, sequence (Q13148 1-260): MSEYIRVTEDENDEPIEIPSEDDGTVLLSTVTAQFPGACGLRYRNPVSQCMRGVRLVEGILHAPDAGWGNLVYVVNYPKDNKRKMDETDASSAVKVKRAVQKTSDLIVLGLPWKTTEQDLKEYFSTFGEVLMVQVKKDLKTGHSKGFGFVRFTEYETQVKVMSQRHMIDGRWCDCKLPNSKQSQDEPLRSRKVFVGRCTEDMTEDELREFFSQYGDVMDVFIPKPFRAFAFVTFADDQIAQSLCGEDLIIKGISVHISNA
Protocol: Alpha-screen assay. […] Briefly, assays contained TDP-43 1-260 (15 ng/mL, 0.27 nM), 10 mg/mL of both streptavidin donor beads and anti-GST acceptor beads with various concentrations of bt-TAR32 (˜18 to +14 in the HIV1 LTR) and test compound in a final volume of 20 mL of 25 mM Tris, 0.1% CHAPS, pH 7.4 in white, opaque low volume 384-well plates. After 3 h incubation at room temperature, the AlphaScreen signal was measured using a Synergy 2 plate reader (Biotek, Winooski, VT). […] Nonspecific binding was determined in the presence of 10 mM bt-TDP43 and was less than 10% of total binding. IC50 values were obtained from nonlinear regression fits of the data to a one-site binding model using Graph Pad Prism, version 5.0 (GraphPad Software, San Diego, CA). Comparison of competitive inhibition and mixed type inhibition models were evaluated using the F-test on global fits of the data also in Graph Pad Prism, version 5.0.
As to `COc1ccc(-c2cc(NCC3CN(C)CCO3)cc(-c3ccc(N4CCN(C)CC4)cc3)n2)cc1` (stereo not shown) [Example 56], the IC50 was determined as 3.24 µM. Still for that read-out and setting: in the case of `COc1ccc(-c2cc(NCC3CCCN3)cc(-c3ccc(N4CCC(C)CC4)cc3)n2)cc1` (stereo not shown) [Example 57] it was 2.85 µM.

Turning to `COc1ccc(-c2cc(NC3CC4CCC(C3)N4C)cc(-c3ccc(N4CCN(C)CC4)cc3)n2)cc1` (stereo not shown) [Example 58], the IC50 turned out to be 2.85 µM.

Turning to `COc1ccc(-c2cc(NCCCN(C)C)cc(-c3ccc(N4CCOCC4)cc3)n2)cc1` [Example 59], the IC50 was 2.04 µM. On the same count and under the same terms, in the case of `COc1ccc(-c2cc(NC3CCNCC3(F)F)cc(-c3ccc(N4CCN(C)CC4)cc3)n2)cc1` (stereo not shown) [Example 60] it was 11 µM. Same read-out and setting: in the case of `COc1ccc(-c2cc(NCCCN3CCCCC3)cc(C3=CCNCC3)n2)cc1` [Example 61] it was 1.87 µM. `COc1ccc(-c2cc(NCCCN(C)C)cc(-c3ccc(C[C@@H](N)C(=O)O)cc3)n2)cc1` [Example 62]: the IC50 is 1.85 µM.

Take `COc1ccc(-c2cc(NCC(F)(F)CN)cc(-c3ccc(N4CCN(C)CC4)cc3)n2)cc1` [Example 63, N-(3-amino-2,2-difluoropropyl)-2-(4-methoxyphenyl)-6-(4-(4-methylpiperazin-1-yl)phenyl)pyridin-4-amine]: the IC50 came to 1.49 µM. With `COc1ccc(-c2cc(/N=N\C3CCNCC3)cc(-c3ccc(N4CCNCC4)cc3)n2)cc1` [Example 64], the IC50 worked out at 1.48 µM.

Turning to `COc1ccc(-c2cc(NCCCN3CCC4NCCC43)cc(-c3ccc(N4CCNCC4)cc3)n2)cc1` (stereo not shown) [Example 65], the IC50 was found to be 1.32 µM. The same measure, in the same setting: in the case of `COc1ccc(-c2cc(NCCCOCCCN)cc(-c3ccc(N4CCNCC4)cc3)n2)cc1` [Example 66] it was 1.2 µM; in that of `COc1ccc(-c2cc(NCC3CCCN(C)C3)cc(-c3ccc(N4CCN(C)CC4)cc3)n2)cc1` (stereo not shown) [Example 67], 1.17 µM; in that of `COc1ccc(-c2cc(NC3CCNCC3F)cc(-c3ccc(N4CCN(C)CC4)cc3)n2)cc1` (stereo not shown) [Example 68], 0.89 µM. Still for that read-out and setting: in the case of `COc1ccc(-c2cc(NCCCN(C)CCCN)cc(-c3ccc(N4CCCCC4)cc3)n2)cc1` [Example 69] it was 0.74 µM. Turning to `COc1ccc(-c2cc(NCCN(C)CCN)cc(-c3ccc(N4CCNCC4)cc3)n2)cc1` [Example 70], the IC50 was found to be 0.63 µM. Regarding `COc1ccc(-c2cc(NCCCN(C)CCCN)cc(CCC3CC3)n2)cc1` [Example 71, N-{3-[(3-aminopropyl)(methyl)amino]propyl}-2-(2-cyclopropylethyl)-6-(4-methoxyphenyl)pyridin-4-amine], the IC50 came to 0.57 µM.

As to `COc1ccc(-c2cc(NCCCN3CCNCC3)cc(-c3ccc(N4CCN(C)CC4)cc3)n2)cc1` [Example 72], the IC50 came to 0.55 µM. Same read-out and setting: in the case of `COc1ccc(-c2cc(NCCOCCN)cc(-c3ccc(N4CCNCC4)cc3)n2)cc1` [Example 73, N-(2-(2-aminoethoxy)ethyl)-2-(4-methoxyphenyl)-6-(4-(piperazin-1-yl)phenyl)pyridin-4-amine] it was 0.49 µM; in that of `COc1ccc(-c2cc(NCCN3CCNCC3)cc(-c3ccc(N4CCNCC4)cc3)n2)cc1` [Example 74], 0.49 µM. The same measure, in the same setting: in the case of `COc1ccc(-c2cc(N[C@@H]3CCNC[C@@H]3OC)cc(-c3ccc(N4CCN(C)CC4)cc3)n2)cc1` [Example 75] it was 0.36 µM; in that of `COc1ccc(-c2cc(NCCCN(C)CCCN)cc(-c3ccc(N4CCN(C)C(F)C4)cc3)n2)cc1` (stereo not shown) [Example 76], 0.23 µM.

`CN(CCCN)CCCNc1cc(-c2ccc(-c3ccncc3)cc2)nc(-c2ccc(N3CCNCC3)cc2)c1` [Example 77]: the IC50 is 0.13 µM.

Take `COc1ccc(-c2cc(NCCCN(C)CCCN)nc(-c3ccc(N4CCNCC4)cc3)n2)cc1` [Example 78, N-{3-[(3-aminopropyl)(methyl)amino]propyl}-6-(4-methoxyphenyl)-2-[4-(piperazin-1-yl)phenyl]pyrimidin-4-amine]: the IC50 was 0.2 µM.

In the case of `COc1ccc(-c2cc(NCCCN(C)C)cc(-c3ccc(OCCCN(C)C)cc3)n2)cc1` [Example 80], the IC50 stood at 0.21 µM. For `COc1ccc(-c2cc(NCCCN(C)C)cc(-c3ccc(OCCCN(C)C)nc3)n2)cc1` [Example 81], the IC50 turned out to be 0.72 µM.

In the case of `CN(C)CCCNc1cc(-c2ccc(OCCCN3CCCC3)cc2)nc2ccccc12` [Example 82], the IC50 was determined as 0.11 µM.

Regarding `COc1cc2c(NCCCN(C)C)ccnc2cc1OCCN1CCCC1` [Example 83], the IC50 was 0.19 µM.

On to `CN(C)CCCNc1cc(-c2ccc(OCCn3cccn3)cc2)nc2ccccc12` [Example 84], for which the IC50 came out at 0.55 µM.

Take `N[C@H]1C[C@H](Nc2cc(-c3ccc(N4CCNCC4)cc3)nc3ccsc23)C1` [Example 85, (1r,3r)-N1-(5-(4-(piperazin-1-yl)phenyl)thieno[3,2-b]pyridin-7-yl)cyclobutane-1,3-diamine]: the IC50 is 0.16 µM.

For `NCCCNc1cc(-c2ccc(N3CCNCC3)cc2)nc2ccsc12` [Example 86], the IC50 worked out at 0.2 µM. As for `NCCCNc1n[nH]c2cc(-c3ccc(N4CCNCC4)cc3)ccc12` [Example 87], the IC50 stood at 0.15 µM. The same measure, in the same setting: in the case of `COc1ccc(-c2cc(N[C@H]3C[C@H](N)C3)cc(-c3cccc(OCCN4CCCC4)c3)n2)cc1` [Example 88, trans-N1-(2-(3-(2-(pyrrolidin-1-yl)ethoxy)phenyl)-6-(4-methoxyphenyl)pyridin-4-yl)cyclobutane-1,3-diamine] it was 0.18 µM; in that of `COc1ccc(-c2cc(NCCCN(C)C)cc(-c3cccc(OCCCN(C)C)c3)n2)cc1` [Example 89, 2-(3-(3-(dimethylamino)propoxy)phenyl)-N-(3-(dimethylamino)propyl)-6-(4-methoxyphenyl)pyridin-4-amine], 0.17 µM; in that of `COc1ccc(-c2cc(N[C@H]3CC[C@H](N)CC3)cc(-c3cccc(OCCN4CCCC4)c3)n2)cc1` [Example 90], 0.09 µM. On the same count and under the same terms, in the case of `COc1ccc(-c2cc(NCCCN(C)C)cc(-c3cccc(OCCN4CCCC4)c3)n2)cc1` [Example 91] it was 0.16 µM; in that of `COc1ccc(-c2cc(NCCCN(C)C)cc(-c3cccc(OCCN(C)C)c3)n2)cc1` [Example 92], 0.34 µM; in that of `COc1ccc(-c2cc(N[C@H]3CC[C@H](N)CC3)cc(-c3cccc(OCCN(C)C)c3)n2)cc1` [Example 93, trans-N1-(2-(3-(2-(dimethylamino)ethoxy)phenyl)-6-(4-methoxyphenyl)pyridin-4-yl)cyclohexane-1,4-diamine], 0.11 µM. Regarding `COc1ccc(-c2cc(N[C@H]3C[C@H](N)C3)cc(-c3ccc(CN(C)CCN(C)C)o3)n2)cc1` [Example 96, N1-{2-[5-({[2-(dimethylamino)ethyl](methyl)amino}methyl)furan-2-yl]-6-(4-methoxyphenyl)pyridin-4-yl}cyclobutane-1,3-diamine], the IC50 stood at 2.4 µM. On the same count and under the same terms, in the case of “Cis-N1-(2-(3-(2-(pyrrolidin-1-yl)ethoxy)phenyl)-6-(4-methoxyphenyl)pyridin-4-yl)cyclobutane-1,3-diamine [Example 94]” it was 0.49 µM. The same measure, in the same setting: in the case of “Ethyl 4-(2-(4-methoxyphenyl)-6-(4-(piperazin-1-yl)phenyl)pyridin-4-ylamino)piperidine-1-carboxylate [Example 49]” it was 5.78 µM. Turning to “N^1-(4-(4-methoxyphenyl)-6-(4-(piperazin-1-yl)phenyl)pyridin-2-yl)-N^3,N^3-dimethylpropane-1,3-diamine [Example 79]”, the IC50 turned out to be 1.09 µM.

(Values after patent US20240148722A1, “SMALL MOLECULES THAT BIND TO TDP-43 FOR THE TREATMENT OF ALS AND RELATED DISORDERS” (Biohaven Therapeutics Ltd., priority 2021, published 2024).)
